These results are taken from patent US20090131370A1, “Novel Nucleoside Derivatives” (METABASIS THERAPEUTICS , INC., priority 2004, published 2009).

Data set [1] can be described thus: Conversion of Compound 31.5 to 2′-β-methyladenosine in monkey liver S9. In kind it is in vitro ADME. Particulars: Monkey liver S9, 37° C., pH 7.4. As to the method: The rate of Compound 31.5 conversion to nucleoside was evaluated in liver S9 obtained from rat, dog, monkey and human liver. […] The homogenate was centrifuged in a Sorvall RC-5B Refrigerated Superspeed Centrifuge (30 minutes at 10,000 g) and the resulting supernatant used in the assays. The other S9 preparations were purchased from 1n Vitro Technologies. […] Aliquots of the reaction mixture were quenched with 2 volumes of ice-cold acetonitrile/0.2% formic acid (pH 3.0) at appropriate time intervals, briefly vortexed, and then immediately placed on dry ice. After all time points were taken, the samples were centrifuged in an Eppendorf microfuge (14,000 rpm, 10 minutes). The supernatant fractions were analyzed for disappearance of prodrug (and appearance of 2′-β-methyladenosine) by reverse phase HPLC on an Agilent Zorbax SB-Aq column (511m, 4.6×150 mm). The loading mobile phase buffer (Buffer A) consisted of a 9:1 ratio (v/v) of 20 mM potassium phosphate, pH 6.2 and acetonitrile. […] The elution of reaction components was monitored at […]. Quantitation was by comparison to authentic standards prepared in liver S9 and processed in an identical fashion to the unknown samples. The rate of prodrug conversion was calculated from the linear portion of the reaction curves and expressed as nmoles converted per mg of S9 protein per minute of reaction time.

For data set [2] the following is noted: male, Sprague-Dawley, rat, in vivo. As to the method:
Analog and Its 2′,3′-Carbonate Prodrugs The liver selectivity of an antiviral nucleoside, 2′-B-C-methyladenosine, and its 2′,3′-carbonate prodrugs was evaluated in the rat by comparing liver nucleotide concentrations to levels of a major metabolite in the plasma or to concentrations of extrahepatic nucleotides. An elevated liver selectivity index is an indication of improved liver targeting of the antiviral agent and reduced exposure to other organs that may be potential targets of toxicity.
At pre-specified times of 20 min, 1, 3, 5, 8, 16, and 24 hrs post dose, liver, heart, and thigh muscle samples (˜1 g) were harvested by freeze-clamping and homogenized in 3 volumes of ice-cold acetonitrile. Following centrifugation to clarify the homogenate, aliquots of the tissue extracts were evaporated to dryness on a Savant Speed-Vac Plus (1 hr, room temperature). The resulting dried residue was reconstituted with 100 μL of mobile phase and then analyzed for nucleotides by an LC-MS/MS method as described in Example I. In addition to solid tissue, blood was collected in heparin tubes at the pre-specified times and centrifuged to obtain plasma. The plasma samples (100 μL) were extracted with 1.5 volumes of methanol and centrifuged for 20 min at top speed on a microfuge. Plasma concentrations of a major metabolite of 2′-B-C-methyladenosine, i.e., 2′-B-C-methylinosine, were determined by LC-UV as described in Example E.
The area under the curve (AUC) to the last measurable time point was calculated by trapezoidal summation of the liver, heart, and muscle concentration-time profile of total nucleotides and NTP and of the plasma concentration-time profile of the major metabolite 2′-B-C-methylinosine. The liver selectivity index was determined by two methods: (1) dividing liver NTP AUC by heart nucleotide AUC and (2) dividing liver NTP AUC by plasma 2′-3-C-methylinosine AUC.

A short description of data set [3]: Oral bioavailability in the rat based on liver nucleotide concentrations. Particulars: male, Sprague-Dawley, in vivo. As to the method: At pre-specified times of 20 min, 1, 3, 5, 8, 16, and 24 hrs post dose, liver samples (˜1 g) were collected by freeze-clamping and homogenized in 3 volumes of ice-cold 60% acetonitrile. Following centrifugation to clarify the homogenate, aliquots of the supernatants (100 μL) were evaporated to dryness on a Savant Speed-Vac Plus (1 hr, room temperature). The resulting dried residue was reconstituted with 100 μL of mobile phase and then analyzed for nucleotides by an LC-MS/MS method as described below.
The reconstituted extracts in mobile phase A (20 mM N,N-dimethylhexylamine and 10 mM propionic acid in 20% methanol) were analyzed by LC-MS/MS (Applied Biosystems, API 4000) equipped with an Agilent 1100 binary pump and a LEAP injector. […] Where possible, the quantitative analysis of liver NMP, NDP, and NTP were calculated based on a calibration curve generated from their respective standards (0.01-30 μM).
The area under the curve (AUC) to the last measurable time point were calculated by trapezoidal summation of the liver concentration-time profile of total nucleotides and NTP. The OBAV was determined by dividing the dose-normalized AUC following oral administration by the AUC following IV dosing.

For `C[C@@]12OC(=O)O[C@@H]1[C@@H](CO)O[C@H]2n1cnc2c(N)ncnc21` [Compound 31.5, 2′,3′-Carbonyl-2′-C-beta-methyl-adenosine], the “Specific activity (rate of prodrug disappearance)” value in data set [1] was found to be 0.024 ± 0.003 nmol/min/mg. Moreover, in data set [2], the “Heart Nucleotides AUC” value is reported as 23, the “Liver NTP AUC” value came out at 2522 and the “Plasma 2′-β-C-Methylinosine AUC” value is 25. Moreover, the “ORAL BIOAVAILABILITY” value in data set [3] is 95%.
